According to patent publication US20130316022A1, “METHOD TO ENHANCE ANTIMICROBIAL ACTIVITY BY INCREASING pH” (University of Iowa Research Foundation, priority 2012, published 2013):

Assays:
[1] = ASL pH measured in vivo with pH-sensitive planar optode on tracheal surface; design: species or system pig
Description: To assess pH in vivo, we used non-invasive dual lifetime referencing to interrogate a 3×3 mm planar optode (pH sensitive foil, PreSens GmbH, Regensburg, Germany)^13 applied directly to the tracheal surface. The device used to transmit and receive the excitation and emission light was a single channel pH meter (pH-1 mini; PreSens GmbH). The tip of the fiberoptic pH meter was kept at the same distance from the tracheal surface in all samples and confirmed by recording the amplitude registered by the device. Calibration before each set of measurements was done by placing the planar optode on the surface of a flat filter soaked in standard pH buffers.
(§1) To decrease airway pH in non-CF pigs, CO2 concentration was controlled in a humidified chamber (100% measured relative humidity, 25-30° C.) using 0 or 15% CO2 and 21% O2 in N2.

S. aureus isolate 43SA = experiment: Bacterial killing by S. aureus-coated grids placed on tracheal surface in vivo
Protocol: Bacteria were cultured to log phase growth and 1×10^8 bacteria were mixed with 0.1 mg/ml N-hydroxysulfosuccinimide (sulfo-NHS)-biotin (Thermo Scientific) for 1 hour at room temperature. Streptavidin-coated grids were then incubated with biotinylated bacteria for 30 minutes and rinsed in PBS.
Bacteria-coated grids were used in three preparations. They were placed on the airway surface in vivo in pigs. They were tested in ASL removed from pigs after methacholine stimulation. They were also placed on the apical surface of primary cultures of differentiated airway epithelia. In each case, after removal from ASL, they were immediately (2-3 seconds) rinsed with PBS and then immersed in PBS containing the fluorescent indicators SYTO 9 and propidium iodide (Live/Dead BacLight™ Bacterial Viability assay, Invitrogen). Propidium iodide staining and this assay indicate the percentage of dead cells (Invitrogen, Molecular Probes product information and Fig. S7). […]
(§2) For each experimental condition, time point, and/or animal, 2 or 3 grids were examined. For each grid, all live and dead bacteria were counted in 5-16 individual microscopic (60×) fields; each microscopic field contained about 100-1000 bacteria. […]
as §1

S. aureus = details: bacteria on grids exposed for 30 seconds
Protocol: Gold grids (TEM grids, 200 mesh, Ted Pella Inc.) were immersed in 1 mM 11-mercaptoundecanoic acid (HS(CH2)10COOH, MUA, Aldrich) solution for 30 minutes at room temperature and then exposed to 1-ethyl-3-(3-diethylaminopropyl)carbodiimide (EDC) and N-hydroxysuccinimide (NHS) (molar ratio 1:2) for 30 minutes to activate the carboxyl groups of MUA. Grids were then placed in a phosphate buffer solution (PBS), pH 7.4, containing 10 μg/ml streptavidin (Sigma) for 30 minutes and then rinsed with PBS. Streptavidin-coated grids were immersed in 1 M glycine for 30 minutes to quench the reaction and then rinsed with PBS. We used S. aureus isolate 43SA (isolated from a CF pig with pulmonary infection^5), and P. aeruginosa PAO1. […] Bacteria were cultured to log phase growth and 1×10^8 bacteria were mixed with 0.1 mg/ml N-hydroxysulfosuccinimide (sulfo-NHS)-biotin (Thermo Scientific) for 1 hour at room temperature. Streptavidin-coated grids were then incubated with biotinylated bacteria for 30 minutes and rinsed in PBS.
Bacteria-coated grids were used in three preparations. They were placed on the airway surface in vivo in pigs. […]
as §2

O=C=O [CO2, reference compound]
ASL pH ([1]; non-CF pigs, tracheas exposed to 15% CO2 in vivo): 6.89 ± 0.15 (6) | % dead (S. aureus isolate 43SA; non-CF pigs, 15% CO2, grids on surface for 30 seconds): 18.5 ± 6.8 (4) %

O=C([O-])O.[Na+] [NaHCO3]
ASL pH ([1]; CF pigs, 50 μL 100 mM aerosolized onto airway surface): 7.43 ± 0.30 (7) | % dead (S. aureus isolate 43SA; CF pigs, 50 μL 100 mM aerosolized onto airway surface, grids 30 seconds): 64.4 ± 7.0 (5) %

ethanol [70% alcohol]
% dead (S. aureus): 97%
